Among the data in publication PMC10196468, “Synthesis, in vitro biological assessment, and molecular docking study of benzimidazole-based thiadiazole derivatives as dual inhibitors of α-amylase and α-glucosidase” (Frontiers in Chemistry, 2023) are IC50 values, retold here.

One test has as its target α-glucosidase. In words: in vitro α-glucosidase inhibitory assay (p-nitrophenyl-D-glucopyranoside, 405 nm). Conditions: triplicates; standard acarbose; read-out: α-Glucosidase IC50 (µM ±SEM). It is filed as biochemical. As for the experimental part: 10 µl of the α-glucosidase enzyme, 20 µl of test samples (10-50 µg/ml) and 50 µl, of 0.1M phosphate buffer (pH=6.8), were incubated at 37°C for 15 min in a 96-well plate. 20 µl of p-nitrophenyl—D-glucopyranoside solution was further added as a substrate and again incubated for 20 min at 37 °C. Sodium carbonate (50 µl of 0.1M) was added to terminate the reaction. P-nitrophenol was liberated, during the reaction which was measured at 405nm using an ELISA microplate reader. […] All the experiments were carried out in triplicates. The percentage inhibition was calculated by the formula.
% Inhibition = [(Ac – As) /Ac] × 100 Ac-absorbance for control, As-absorbance for standard.
As a reminder, the IC50 is the midpoint of a concentration-inhibition curve. Turning to `Oc1cc(F)ccc1/C=N/c1nnc(-c2cccc3[nH]cnc23)s1` [Analog 2, (E)-2-(((5-(1H-benzo[d]imidazol-4-yl)-1,3,4-thiadiazol-2-yl)imino)methyl)-5-fluorophenol], the IC50 was 2.1 ± 0.1 µM.
With “(E)-N-(5-(1H-benzo[d]imidazol-4-yl)-1,3,4-thiadiazol-2-yl)-1-(3-fluorophenyl)methanimine [Analog 11]”, the IC50 was determined as 4.7 ± 0.1 µM.
Take `Cc1ccc(/C=N/c2nnc(-c3cccc4[nH]cnc34)s2)cc1` [Analog 6, (E)-N-(5-(1H-benzo[d]imidazol-4-yl)-1,3,4-thiadiazol-2-yl)-1-(p-tolyl)methanimine]: the IC50 turned out to be 15.3 ± 0.1 µM.
As to `COc1cccc(/C=N/c2nnc(-c3cccc4[nH]cnc34)s2)c1` [Analog 13, (E)-N-(5-(1H-benzo[d]imidazol-4-yl)-1,3,4-thiadiazol-2-yl)-1-(3-methoxyphenyl)methanimine], the IC50 was 17.2 ± 0.3 µM.
`Clc1cccc(/C=N/c2nnc(-c3cccc4[nH]cnc34)s2)c1Cl` [Analog 15, (E)-N-(5-(1H-benzo[d]imidazol-4-yl)-1,3,4-thiadiazol-2-yl)-1-(2,3-dichlorophenyl)methanimine]: the IC50 was 6.6 ± 0.1 µM.
Still for that read-out and setting: with `Brc1ccc(/C=N/c2nnc(-c3cccc4[nH]cnc34)s2)cc1` [Analog 16, (E)-N-(5-(1H-benzo[d]imidazol-4-yl)-1,3,4-thiadiazol-2-yl)-1-(4-bromophenyl)methanimine] the figure was 26.1 ± 0.1 µM; with `O=[N+]([O-])c1cc(Br)ccc1/C=N/c1nnc(-c2cccc3[nH]cnc23)s1` [Analog 3, (E)-N-(5-(1H-benzo[d]imidazol-4-yl)-1,3,4-thiadiazol-2-yl)-1-(4-bromo-2-nitrophenyl)methanimine], 24.6 ± 0.2 µM.
For the molecule `COc1ccc(OC)c(/C=N/c2nnc(-c3cccc4[nH]cnc34)s2)c1` [Analog 10, (E)-N-(5-(1H-benzo[d]imidazol-4-yl)-1,3,4-thiadiazol-2-yl)-1-(2,5-dimethoxyphenyl)methanimine], the IC50 was 14.5 ± 0.5 µM.
As for “(E)-N-(5-(1H-benzo[d]imidazol-4-yl)-1,3,4-thiadiazol-2-yl)-1-(4-bromophenyl)methanimine [Analog 17]”, the IC50 is 2.3 ± 0.6 µM.
With `COc1ccccc1/C=N/c1nnc(-c2cccc3[nH]cnc23)s1` [Analog 12, (E)-N-(5-(1H-benzo[d]imidazol-4-yl)-1,3,4-thiadiazol-2-yl)-1-(2-methoxyphenyl)methanimine], the IC50 turned out to be 15.4 ± 0.3 µM.
As for `FC(F)(F)c1ccc(/C=N/c2nnc(-c3cccc4[nH]cnc34)s2)cc1` [Analog 1, (E)-N-(5-(1H-benzo[d]imidazol-4-yl)-1,3,4-thiadiazol-2-yl)-1-(4-(trifluoromethyl)phenyl)methanimine], the IC50 was determined as 2.8 ± 0.2 µM.
The same measure, in the same setting: with `O=[N+]([O-])c1ccc(/C=N/c2nnc(-c3cccc4[nH]cnc34)s2)cc1` [Analog 5, (E)-N-(5-(1H-benzo[d]imidazol-4-yl)-1,3,4-thiadiazol-2-yl)-1-(4-nitrophenyl)methanimine] the figure was 5.7 ± 0.2 µM; with `Cc1cccc(/C=N/c2nnc(-c3cccc4[nH]cnc34)s2)c1` [Analog 8, (E)-N-(5-(1H-benzo[d]imidazol-4-yl)-1,3,4-thiadiazol-2-yl)-1-(m-tolyl)methanimine], 21.6 ± 0.3 µM.
As to `Cc1ccccc1/C=N/c1nnc(-c2cccc3[nH]cnc23)s1` [Analog 7, (E)-N-(5-(1H-benzo[d]imidazol-4-yl)-1,3,4-thiadiazol-2-yl)-1-(o-tolyl)methanimine], the IC50 was found to be 19.9 ± 0.1 µM.
The same measure, in the same setting: with `Fc1ccc(/C=N/c2nnc(-c3cccc4[nH]cnc34)s2)cc1` [Analog 9, (E)-N-(5-(1H-benzo[d]imidazol-4-yl)-1,3,4-thiadiazol-2-yl)-1-(4-fluorophenyl)methanimine] the figure was 3.9 ± 0.1 µM; with `O=[N+]([O-])c1ccccc1/C=N/c1nnc(-c2cccc3[nH]cnc23)s1` [Analog 4, (E)-N-(5-(1H-benzo[d]imidazol-4-yl)-1,3,4-thiadiazol-2-yl)-1-(2 nitrophenyl)methanimine], 7.4 ± 0.3 µM; with `O=[N+]([O-])c1cc(Cl)ccc1/C=N/c1nnc(-c2cccc3[nH]cnc23)s1` [Analog 14, (E)-N-(5-(1H-benzo[d]imidazol-4-yl)-1,3,4-thiadiazol-2-yl)-1-(4-chloro-2-nitrophenyl)methanimine], 9.3 ± 0.4 µM.

The next test addresses T1, α-amylase (Sus scrofa, UniProt P00690).
T1 sequence (P00690 16-511): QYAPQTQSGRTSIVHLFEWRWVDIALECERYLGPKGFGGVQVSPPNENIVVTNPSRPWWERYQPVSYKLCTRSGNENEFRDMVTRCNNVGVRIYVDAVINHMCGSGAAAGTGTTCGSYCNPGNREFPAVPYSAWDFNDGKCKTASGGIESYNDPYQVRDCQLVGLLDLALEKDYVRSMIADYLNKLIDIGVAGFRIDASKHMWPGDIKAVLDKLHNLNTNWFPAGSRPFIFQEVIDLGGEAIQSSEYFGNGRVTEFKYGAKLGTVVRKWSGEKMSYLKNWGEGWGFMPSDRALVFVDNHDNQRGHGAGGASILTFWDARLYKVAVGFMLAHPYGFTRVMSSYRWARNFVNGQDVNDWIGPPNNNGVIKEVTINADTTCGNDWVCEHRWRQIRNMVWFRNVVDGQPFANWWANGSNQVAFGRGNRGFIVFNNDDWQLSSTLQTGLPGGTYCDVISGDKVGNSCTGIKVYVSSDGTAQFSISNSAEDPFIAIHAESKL
In words: in vitro α-amylase inhibitory assay (starch/DNS, absorbance 540 nm). It is filed as biochemical. Conditions: triplicates; standard acarbose; read-out: α-Amylase IC50 (µM ±SEM). As for the experimental part:
20µL of α -amylase solution (0.5 mg/ml) was added to phosphate buffer (pH 6.9, 0.02 M, 200 µL). 250 μL of test samples (10-50 µg/mL) was added, to all the above solutions and kept for incubation for 10 min.1% starch solution (200µL) was further added and again kept for incubation for 10 min at a temperature of 25°C. Termination of the reaction was affected by the addition of 400 μL of 3, 5-dinitrosalicylic acid (DNS) reagent. Lastly, it was incubated in water (at 70°C, 5 min). The absorbance was recorded using an ELISA microplate reader at 540 nm. […] All the reactions were carried out in triplicates. The reaction mixture, devoid of the test sample, served as control. The following formula was employed to calculate percentage inhibition..
% Inhibition = [(Ac – As) /Ac] × 100 Ac-Control absorbance, As-Standard absorbance
Take “(E)-N-(5-(1H-benzo[d]imidazol-4-yl)-1,3,4-thiadiazol-2-yl)-1-(3-fluorophenyl)methanimine [Analog 11]”: the IC50 was found to be 3.18 ± 0.1 µM.
Still for that read-out and setting: with “(E)-N-(5-(1H-benzo[d]imidazol-4-yl)-1,3,4-thiadiazol-2-yl)-1-(4-bromophenyl)methanimine [Analog 17]” the figure was 2.16 ± 0.5 µM.
